Laboratory results reported in patent US7560468B2, “Substituted 1,4,8-triazaspiro[4,5]decan-2-one compounds” (Gruenenthal GmbH, priority 2004, dated 2009).

Tests used:
[1] = tested on: batrachotoxin (BTX) binding site of the sodium channel; assay: Affinity to the batrachotoxin (BTX) binding site of the sodium channel; settings: rat cerebrocortex synaptosomes, [3H]-batrachotoxinin A20 α-benzoate 10 nM; test concentration not given
[2] = biological target: T1, 5-HT transporter (Rattus norvegicus, UniProt P31652); assay: Inhibition of 5-HT uptake in synaptosomes; type: biochemical; settings: for inhibition at 1 µM: read-out: Uptake_5-HT, rat, 1 μM, % inhibition
T1 construct: from tissue; host or cells: rat brain synaptosomes (marrow/medulla and pons), P2 fraction
T1 sequence (P31652 whole entry): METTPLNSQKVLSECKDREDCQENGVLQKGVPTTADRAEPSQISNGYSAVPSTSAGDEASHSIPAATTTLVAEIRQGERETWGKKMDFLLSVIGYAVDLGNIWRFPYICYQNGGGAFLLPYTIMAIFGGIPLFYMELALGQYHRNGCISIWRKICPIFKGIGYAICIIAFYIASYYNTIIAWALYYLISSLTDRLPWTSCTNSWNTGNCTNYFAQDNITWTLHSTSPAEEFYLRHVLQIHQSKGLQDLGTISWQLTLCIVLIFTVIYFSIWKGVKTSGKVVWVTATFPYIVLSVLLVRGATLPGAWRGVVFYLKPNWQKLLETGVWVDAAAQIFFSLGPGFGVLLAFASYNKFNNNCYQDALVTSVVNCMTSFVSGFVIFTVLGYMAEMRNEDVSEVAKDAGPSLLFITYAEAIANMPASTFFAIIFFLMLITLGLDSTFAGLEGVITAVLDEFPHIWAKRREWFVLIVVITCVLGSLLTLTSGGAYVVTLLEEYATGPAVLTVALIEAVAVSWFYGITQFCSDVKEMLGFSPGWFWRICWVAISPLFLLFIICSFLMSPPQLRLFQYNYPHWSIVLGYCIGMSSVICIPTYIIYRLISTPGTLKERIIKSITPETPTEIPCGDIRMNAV

[3] = tested on: NA transporter; assay: Inhibition of noradrenalin uptake in synaptosomes; type: biochemical

SMILES | BTX Inhibition [1] | Uptake_5-HT, rat, 1 μM, % inhibition [2] | Uptake (NA), rat, 10 μM, % inhibition [3] | inhibition at 1 µM [2]
CSCCC1NC2(CCN(C(=O)Nc3cccc(C#N)c3)CC2)N(Cc2ccccc2)C1=O (stereo not drawn) [Example 208, 1-Benzyl-3-(2-methylsulfanylethyl)-2-oxo-1,4,8-triazaspiro[4,5]decan-8-carboxylic acid (3-cyanobenzol)amide] | 41 | 45% | 49% | 
CCOC(=O)NC(=S)N1CCC2(CC1)NC(Cc1ccccc1)C(=O)N2Cc1ccccc1F (stereo not drawn) [Example 174, Ethyl[3-benzyl-1-(2-fluorobenzyl)-2-oxo-1,4,8-triazaspiro[4,5]decan-8-carbothioyl]-carbamate] | 38 |  | 39% | 31%
CCCCN1C(=O)C(CCSC)NC12CCN(C(=S)Nc1ccc(OCC)cc1)CC2 (stereo not drawn) [Example 158, 1-Butyl-3-(2-methylsulfanylethyl)-2-oxo-1,4,8-triazaspiro[4,5]decan-8-thiocarboxylic acid (4-ethoxy-benzol)amide] | 35 | 33% | 41% | 
CC(C)C1NC2(CCN(C(=S)Nc3c(F)c(F)c(F)c(F)c3F)CC2)N(Cc2ccccc2)C1=O (stereo not drawn) [Example 154, 1-Benzyl-3-isopropyl-2-oxo-1,4,8-triazaspiro[4,5]decan-8-thiocarboxylic acid pentafluorobenzolamide-amide] | 61 | 34% | 43% | 
CCCCN1C(=O)C(CCSC)NC12CCN(C(=S)Nc1ccc(F)cc1)CC2 (stereo not drawn) [Example 189, 1-Butyl-3-(2-methylsulfanylethyl)-2-oxo-1,4,8-triazaspiro[4,5]decan-8-thiocarboxylic acid (4-fluorobenzol)amide] | 41 | 66% | 30% | 
CCCCN1C(=O)C(CCSC)NC12CCN(C(=O)Nc1cc(OC)c(OC)c(OC)c1)CC2 (stereo not drawn) [Example 210, 1-Butyl-3-(2-methylsulfanylethyl)-2-oxo-1,4,8-triazaspiro[4,5]decan-8-carboxylic acid (3,4,5-trimethoxy-benzol)amide] | 44 | 32% | 36% | 
CCOC(=O)CN1C(=O)C(Cc2ccccc2)NC12CCN(S(=O)(=O)c1ccccc1C(F)(F)F)CC2 (stereo not drawn) [Example 65, Ethyl[3-benzyl-2-oxo-8-(2-trifluoromethylbenzolsulfonyl)-1,4,8-triazaspiro[4,5]dec-1-yl]-acetate] | 51 | 71% | 33% | 
C#CCN1C(=O)C(Cc2ccccc2)NC12CCN(S(=O)(=O)c1ccccc1C(F)(F)F)CC2 (stereo not drawn) [Example 39, 3-Benzyl-1-prop-2-ynyl-8-(2-trifluoromethylbenzolsulfonyl)-1,4,8-triazaspiro[4,5]decan-2-one] | 39 | 38% | 41% | 
CCOC(=O)CN1C(=O)C(Cc2ccccc2)NC12CCN(C(=S)NCC1CCCCC1)CC2 (stereo not drawn) [Example 159, Ethyl[3-benzyl-8-(cyclohexylmethylthiocarbamoyl)-2-oxo-1,4,8-triazaspiro[4,5]dec-1-yl]-acetate] | 84 |  | 36% | 33%
CSCCC1NC2(CCN(C(=O)Nc3cccc(C#N)c3)CC2)N(Cc2ccc(F)cc2)C1=O (stereo not drawn) [Example 244, 1-(4-Fluorobenzyl)-3-(2-methylsulfanylethyl)-2-oxo-1,4,8-triazaspiro[4,5]decan-8-carboxylic acid (3-cyanobenzol)amide] | 47 | 52% | 32% | 
C#CCN1C(=O)C(CC(C)C)NC12CCN(C(=S)Nc1cccc(C(C)=O)c1)CC2 (stereo not drawn) [Example 163, 3-Isobutyl-2-oxo-1-prop-2-ynyl-1,4,8-triazaspiro[4,5]decan-8-thiocarboxylic acid (3-acetylbenzol)amide] |  | 38% | 34% | 
O=C1NC2(CCN(S(=O)(=O)c3ccccc3F)CC2)NC1Cc1ccccc1 (stereo not drawn) [Example 7, 3-Benzyl-8-(2-fluorobenzolsulfonyl)-1,4,8-triazaspiro[4,5]decan-2-one] |  | 54% | 32% | 
CC(C)CC1NC2(CCN(C(=S)Nc3cc(C(F)(F)F)cc(C(F)(F)F)c3)CC2)N(Cc2ccccc2C#N)C1=O (stereo not drawn) [Example 169, 1-(2-Cyanobenzyl)-3-isobutyl-2-oxo-1,4,8-triazaspiro[4,5]decan-8-thiocarboxylic acid (3,5-bis-trifluoromethylbenzol)amide] | 91 |  | 44% | 
CCCCN1C(=O)C(CCSC)NC12CCN(C(=S)NCc1ccccc1)CC2 (stereo not drawn) [Example 160, 1-Butyl-3-(2-methylsulfanylethyl)-2-oxo-1,4,8-triazaspiro[4,5]decan-8-thiocarboxylic acid benzylamide] | 63 |  | 42% | 
COc1ccccc1NC(=S)N1CCC2(CC1)NC(CCSC)C(=O)N2Cc1cccc(C#N)c1 (stereo not drawn) [Example 184, 1-(3-Cyanobenzyl)-3-(2-methylsulfanylethyl)-2-oxo-1,4,8-triazaspiro[4,5]decan-8-thiocarboxylic acid (2-methoxy-benzol)amide] | 36 |  | 32% | 
CC(C)C1NC2(CCN(C(=S)Nc3cc(F)ccc3F)CC2)N(Cc2ccccc2)C1=O (stereo not drawn) [Example 157, 1-Benzyl-3-isopropyl-2-oxo-1,4,8-triazaspiro[4,5]decan-8-thiocarboxylic acid (2,5-difluorobenzol)amide] | 39 |  | 38% | 
CCOC(=O)CC(C)NC(=S)N1CCC2(CC1)NC(Cc1ccccc1)C(=O)N2C (stereo not drawn) [Example 131, Ethyl 3-[(3-benzyl-1-methyl-2-oxo-1,4,8-triazaspiro[4,5]decan-8-carbothioyl)amino]-butyrate] | 42 |  | 42% | 
COC(=O)c1ccc(CN2C(=O)C(C(C)C)NC23CCN(C(=S)Nc2c(F)c(F)c(F)c(F)c2F)CC3)cc1 (stereo not drawn) [Example 164, Methyl 4-(3-isopropyl-2-oxo-8-pentafluorobenzolthiocarbamoyl-1,4,8-triazaspiro[4,5]dec-1-ylmethyl)benzoate] | 42 |  | 58% | 
COc1cc(C)c(S(=O)(=O)N2CCC3(CC2)NC(C(C)C)C(=O)N3Cc2ccccc2F)c(C)c1C (stereo not drawn) [Example 11, 1-(2-Fluorobenzyl)-3-isopropyl-8-(4-methoxy-2,3,6-trimethylbenzolsulfonyl)-1,4,8-triazaspiro[4,5]decan-2-one] |  | 52% | 37% | 
CCCCN1C(=O)C(C(C)C)NC12CCN(C(=S)Nc1c(F)c(F)c(F)c(F)c1F)CC2 (stereo not drawn) [Example 152, 1-Butyl-3-isopropyl-2-oxo-1,4,8-triazaspiro[4,5]decan-8-thiocarboxylic acid pentafluorobenzolamide-amide] | 39 |  | 37% | 
CSCCC1NC2(CCN(S(=O)(=O)c3ccc(C(C)=O)cc3)CC2)N(Cc2cccc(C#N)c2)C1=O (stereo not drawn) [Example 10, 3-[8-(4-Acetylbenzolsulfonyl)-3-(2-methylsulfanylethyl)-2-oxo-1,4,8-triazaspiro[4,5]dec-1-ylmethyl]-benzonitrile] |  | 35% | 39% | 
COc1cc(C)c(S(=O)(=O)N2CCC3(CC2)NC(=O)C(Cc2ccccc2)N3)c(C)c1C (stereo not drawn) [Example 4, 3-Benzyl-8-(4-methoxy-2,3,6-trimethylbenzolsulfonyl)-1,4,8-triazaspiro[4,5]decan-2-one] | 53 |  | 34% | 
CSCCC1NC2(CCN(C(=S)Nc3ccc(Cl)cc3)CC2)N(Cc2cccc(C#N)c2)C1=O (stereo not drawn) [Example 172, 1-(3-Cyanobenzyl)-3-(2-methylsulfanylethyl)-2-oxo-1,4,8-triazaspiro[4,5]decan-8-thiocarboxylic acid (4-chlorobenzol)amide] | 59 |  | 47% | 
CSCCC1NC2(CCN(C(=S)NC(C)c3ccccc3)CC2)N(Cc2cccc(C#N)c2)C1=O (stereo not drawn) [Example 181, 1-(3-Cyanobenzyl)-3-(2-methylsulfanylethyl)-2-oxo-1,4,8-triazaspiro[4,5]decan-8-thiocarboxylic acid (1-benzol-ethyl)amide] | 57 |  | 40% | 
CCCCN1C(=O)C(CCSC)NC12CCN(C(=S)Nc1c(F)c(F)c(F)c(F)c1F)CC2 (stereo not drawn) [Example 173, 1-Butyl-3-(2-methylsulfanylethyl)-2-oxo-1,4,8-triazaspiro[4,5]decan-8-thiocarboxylic acid pentafluorobenzolamide-amide] | 40 |  | 45% | 
CCOC(=O)CN1C(=O)C(CCSC)NC12CCN(C(=O)Nc1ccccc1)CC2 (stereo not drawn) [Example 203, Ethyl[3-(2-methylsulfanylethyl)-2-oxo-8-benzolcarbamoyl-1,4,8-triazaspiro[4,5]dec-1-yl]-acetate] | 32 |  | 40% | 
CCCCN1C(=O)C(C(C)C)NC12CCN(C(=O)Nc1cc(OC)ccc1OC)CC2 (stereo not drawn) [Example 216, 1-Butyl-3-isopropyl-2-oxo-1,4,8-triazaspiro[4,5]decan-8-carboxylic acid (2,5-dimethoxy-benzol)amide] |  | 46% | 30% | 
CSCCC1NC2(CCN(C(=O)NCc3ccc(Cl)c(Cl)c3)CC2)N(Cc2ccccc2C#N)C1=O (stereo not drawn) [Example 229, 1-(2-Cyanobenzyl)-3-(2-methylsulfanylethyl)-2-oxo-1,4,8-triazaspiro[4,5]decan-8-carboxylic acid 3,4-dichlorobenzylamide] | 69 |  | 40% | 
